In publication PMC6225165, “Design and Synthesis of Novel Dehydroepiandrosterone Analogues as Potent Antiproliferative Agents” (Molecules : A Journal of Synthetic Chemistry and Natural …, 2018):

What was measured:
A549 = test: MTT antiproliferative assay, A549; format: cell-based, human; conditions: for inhibition at 100 µM / % Growth Inhibition at 100 μM A549 / IC50: 48 h, MTT; for inhibition at 100 µM: read-out: % Growth Inhibition at 100 μM A549; for Selectivity Index A549: IC50 on normal cells (L02)/IC50 on tumour cells
Procedure: (§1) The antiproliferative activity of the title compounds against the panel of six different human cancer cell lines, viz. lung (A549), cervix (HeLa), liver (HepG-2), liver (BEL7402), colorectal (HCT116), and breast (MCF-7) cell lines, was evaluated using a standard MTT-based colorimetric assay. All cell lines were obtained from the Key Laboratory of Natural Resources and Functional Molecules of the Changbai Mountain (Yanbian University) and maintained in Dulbecco’s modified Eagle’s medium (DMEM) and RPMI Media 1640 (RPMI1640), supplemented with 10% foetal bovine serum (FBS) at 37 °C in a humidified atmosphere containing 5% CO2.
(§2) Cells were plated in 96-well plates at appropriate densities to ensure exponential growth throughout the experimental period (9 × 10^3 cells per well), and then allowed to adhere for 24 h. Cells were then treated for 48 h with each compound. After 48 h of incubation, 10 μL of MTT solution were added to each well to a final concentration of 2 mg·mL^−1. Plates were then incubated for a further 4 h. After incubation, the MTT solution was removed and 150 μL of DMSO were added to each well for coloration. The plates were shaken vigorously for 10 min at room temperature to ensure complete solubilisation. The optometric density (OD) was read on a microplate reader (EL × 800, BioTek, Highland Park, Winooski, VT, USA) at 492 nm, and the data were subsequently analysed. The percentage of cell growth inhibition was calculated from the following equation:Inhibitory rate (%) = [1 − (ODtreated − ODblank)/(ODcontrol − ODblank)] × 100.
(§3) To obtain the antiproliferative activity of compounds 2a–2w, the compounds were selected in the same way with four serial concentrations (1, 10, 50 and 100 μM) of those compounds. The optometric density (OD) reading was then used to calculate the IC50.

Hela = test: MTT antiproliferative assay, Hela; format: cell-based, human; conditions: for inhibition at 100 µM / % Growth Inhibition at 100 μM Hela / IC50: 48 h, MTT; for inhibition at 100 µM: read-out: % Growth Inhibition at 100 μM Hela; for Selectivity Index Hela: IC50 on normal cells (L02)/IC50 on tumour cells
Procedure: as §1, §2, §3

HepG-2 = test: MTT antiproliferative assay, HepG-2; format: cell-based, human; conditions: for inhibition at 100 µM / % Growth Inhibition at 100 μM HepG-2 / IC50: 48 h, MTT; for inhibition at 100 µM: read-out: % Growth Inhibition at 100 μM HepG-2; for Selectivity Index HepG-2: IC50 on normal cells (L02)/IC50 on tumour cells
Procedure: as §1, §2, §3

BEL7402 = test: MTT antiproliferative assay, BEL7402; format: cell-based, human; conditions: for inhibition at 100 µM / % Growth Inhibition at 100 μM BEL7402 / IC50: 48 h, MTT; for inhibition at 100 µM: read-out: % Growth Inhibition at 100 μM BEL7402; for Selectivity Index BEL7402: IC50 on normal cells (L02)/IC50 on tumour cells
Procedure: as §1, §2, §3

HCT116 = test: MTT antiproliferative assay, HCT116; format: cell-based, human; conditions: for inhibition at 100 µM / % Growth Inhibition at 100 μM HCT116 / IC50: 48 h, MTT; for inhibition at 100 µM: read-out: % Growth Inhibition at 100 μM HCT116; for Selectivity Index HCT116: IC50 on normal cells (L02)/IC50 on tumour cells
Procedure: as §1, §2, §3

MCF-7 = test: MTT antiproliferative assay, MCF-7; format: cell-based, human; conditions: for inhibition at 100 µM / % Growth Inhibition at 100 μM MCF-7 / IC50: 48 h, MTT; for inhibition at 100 µM: read-out: % Growth Inhibition at 100 μM MCF-7
Procedure: as §1, §2, §3

[1] = system: human normal liver (L02) cells; test: MTT assay on normal cell line L02; format: cell-based; conditions: 48 h, MTT; for inhibition at 100 µM / % Growth Inhibition at 100 μM L02: normal cells; for inhibition at 100 µM: read-out: % Growth Inhibition at 100 μM L02; for IC50: normal cell line

SMILES	inhibition at 100 µM (A549; Homo sapiens, A549) [%]	inhibition at 100 µM (Hela; Homo sapiens) [%]	inhibition at 100 µM (HepG-2; Homo sapiens, HepG2) [%]	inhibition at 100 µM (BEL7402; Homo sapiens, Bel-7402) [%]	inhibition at 100 µM (HCT116; Homo sapiens, HCT-116) [%]	inhibition at 100 µM (MCF-7; Homo sapiens, MCF7) [%]	inhibition at 100 µM ([1]; Homo sapiens, L02) [%]	% Growth Inhibition at 100 μM A549 (A549)	% Growth Inhibition at 100 μM Hela (Hela)	% Growth Inhibition at 100 μM HepG-2 (HepG-2)	% Growth Inhibition at 100 μM BEL7402 (BEL7402)	% Growth Inhibition at 100 μM HCT116 (HCT116)	% Growth Inhibition at 100 μM MCF-7 (MCF-7)	% Growth Inhibition at 100 μM L02 [1]	IC50 (A549; Homo sapiens, A549) [µM]	IC50 (Hela; Homo sapiens, HeLa) [µM]	IC50 (HepG-2; Homo sapiens, HepG2) [µM]	IC50 (BEL7402; Homo sapiens, Bel-7402) [µM]	IC50 (HCT116; Homo sapiens, HCT-116) [µM]	IC50 (MCF-7; Homo sapiens, MCF7) [µM]	also measured
CC12CCC3C(CC=C4CC(O)CCC43C)C1C/C(=C\c1cn(-c3ccccc3)nn1)C2=O (stereo not drawn) [Compound 2a, (E)-3-hydroxy-10,13-dimethyl-16-((1-phenyl-1H-1,2,3-triazol-4-yl)methylene)-1,3,4,7,8,9,10,11,12,13,15,16-dodecahydro-2H-cyclopenta[a]phenanthren-17(14H)-one]	30.3	< 5	10.2	12.9	11.1	< 5	22.3														
CC12CCC3C(CC=C4CC(O)CCC43C)C1C/C(=C\c1cn(-c3ccccc3F)nn1)C2=O (stereo not drawn) [Compound 2b, (E)-16-((1-(2-fluorophenyl)-1H-1,2,3-triazol-4-yl)methylene)-3-hydroxy-10,13-dimethyl-1,3,4,7,8,9,10,11,12,13,15,16-dodecahydro-2H-cyclopenta[a]phenan-thren-17(14H)-one]								NA (NA: antiproliferative activity <5%)	NA (NA: antiproliferative activity <5%)	NA (NA: antiproliferative activity <5%)	NA (NA: antiproliferative activity <5%)	NA (NA: antiproliferative activity <5%)	NA (NA: antiproliferative activity <5%)	NA (NA: antiproliferative activity <5%)							
CC12CCC3C(CC=C4CC(O)CCC43C)C1C/C(=C\c1cn(-c3cccc(F)c3)nn1)C2=O (stereo not drawn) [Compound 2c, (E)-16-((1-(3-fluorophenyl)-1H-1,2,3-triazol-4-yl)methylene)-3-hydroxy-10,13-dimethyl-1,3,4,7,8,9,10,11,12,13,15,16-dodecahydro-2H-cyclopenta[a]phenanthren-17(14H)-one]	60.5	55.2	78.8	66.7	78.3	31.2	79.3								51.6	83.5	11.1	68.9	26.3	> 100	Selectivity Index A549 (A549): 1.61; Selectivity Index Hela (Hela): 0.99; Selectivity Index HepG-2 (HepG-2): 7.53; Selectivity Index BEL7402 (BEL7402): 1.21; Selectivity Index HCT116 (HCT116): 3.17; IC50 ([1]; Homo sapiens, L02): 83.4 µM
CC12CCC3C(CC=C4CC(O)CCC43C)C1C/C(=C\c1cn(-c3ccc(F)cc3)nn1)C2=O (stereo not drawn) [Compound 2d, (E)-16-((1-(4-fluorophenyl)-1H-1,2,3-triazol-4-yl)methylene)-3-hydroxy-10,13-dimethyl-1,3,4,7,8,9,10,11,12,13,15,16-dodecahydro-2H-cyclopenta[a]phenanthren-17(14H)-one]	68.8	78.9	65.6	60.4	84.9	83	80.3								15.8	13.2	36.2	40.4	33.2	17.8	Selectivity Index A549 (A549): 1.76; Selectivity Index Hela (Hela): 2.10; Selectivity Index HepG-2 (HepG-2): 0.77; Selectivity Index BEL7402 (BEL7402): 0.69; Selectivity Index HCT116 (HCT116): 0.83; Selectivity Index MCF-7 (MCF-7; IC50 on normal cells (L02)/IC50 on tumour cells): 1.56; IC50 ([1]; Homo sapiens, L02): 27.8 µM
CC12CCC3C(CC=C4CC(O)CCC43C)C1C/C(=C\c1cn(-c3ccccc3Cl)nn1)C2=O (stereo not drawn) [Compound 2e, (E)-16-((1-(2-chlorophenyl)-1H-1,2,3-triazol-4-yl)methylene)-3-hydroxy-10,13-di-methyl-1,3,4,7,8,9,10,11,12,13,15,16-dodecahydro-2H-cyclopenta[a]phenan-thren-17(14H)-one]								NA (NA: antiproliferative activity <5%)	32.8%	NA (NA: antiproliferative activity <5%)	10.5%	23.0%	37.3%	12.4%							
CC12CCC3C(CC=C4CC(O)CCC43C)C1C/C(=C\c1cn(-c3cccc(Cl)c3)nn1)C2=O (stereo not drawn) [Compound 2f, (E)-16-((1-(3-chlorophenyl)-1H-1,2,3-triazol-4-yl)methylene)-3-hydroxy-10,13-dimethyl-1,3,4,7,8,9,10,11,12,13,15,16-dodecahydro-2H-cyclopenta[a]phenanthren-17(14H)-one]	11.9	9.2	51.7	36.5	41.9	41	60.2														
CC12CCC3C(CC=C4CC(O)CCC43C)C1C/C(=C\c1cn(-c3ccc(Cl)cc3)nn1)C2=O (stereo not drawn) [Compound 2g, (E)-16-((1-(4-chlorophenyl)-1H-1,2,3-triazol-4-yl)methylene)-3-hydroxy-10,13-dimethyl-1,3,4,7,8,9,10,11,12,13,15,16-dodecahydro-2H-cyclopenta[a]phenanthren-17(14H)-one]	69.8	62.8	32.5	66.9	78.7	39.9	40.9								37.4	57.3	> 100	58.2	23.4	> 100	IC50 ([1]; Homo sapiens, L02): > 100 µM
CC12CCC3C(CC=C4CC(O)CCC43C)C1C/C(=C\c1cn(-c3ccc(Cl)c(Cl)c3)nn1)C2=O (stereo not drawn) [Compound 2h, (E)-16-((1-(3,4-dichlorophenyl)-1H-1,2,3-triazol-4-yl)methylene)-3-hydroxy-10,13-dimethyl-1,3,4,7,8,9,10,11,12,13,15,16-dodecahydro-2H-cyclopenta[a]phenan-thren-17(14H)-one]								70.7%	68.7%	48.2%	70.1%	74.4%	80.0%	67.9%							IC50 (A549): 17.5 µM; IC50 (Hela): 15.1 µM; IC50 (HepG-2): > 100 µM; IC50 (BEL7402): 16 µM; IC50 (HCT116): 11.9 µM; IC50 (MCF-7): 14.9 µM; IC50 [1]: 26.4 µM
O=c1[nH]cc(F)c(=O)[nH]1 [Compound 5-FU, 5-fluorouracil, reference compound]																	10.6	21.3	24.8	28.1	
